# Source: patent publication US20200368247A1, “CENICRIVIROC FOR THE TREATMENT OF FIBROSIS” (Tobira Therapeutics, Inc., priority 2014, published 2020)
# Where “and” joins values, the source holds several entries; their conditions need not be identical. Equal entries are not always repeated.
# How the values were obtained:
# NASH mice [1] = assay: STAM mouse model of Non-alcoholic Steatohepatitis, anti-NASH/fibrosis effects, week 9; assay type: in vivo
# Protocol: NASH was induced in male mice by a single injection of […] streptozotocin 2 days after birth (causing impaired glucose control), followed by a high fat diet from 4 weeks of age. […] Animals were sacrificed at 9 weeks of age, and biochemical, gene expression, and histologic evaluations of the liver were conducted.
# This in vivo efficacy study was performed to examine the effects of Cenicriviroc in the STAM™ mouse model of Non-alcoholic Steatohepatitis.
# NASH mice [2] = assay: STAM mouse model of NASH, anti-HCC effects, week 18; conditions: for Body weight / Maximum diameter of visible tumor nodules (mm) / mice with GS-positive nodules / mice with HCC lesions (HE staining): week 18; for mice that died (survival analysis): 6 to 18 weeks
# Protocol: Group 1-Vehicle: Eighteen NASH mice were orally administered vehicle at a volume of 10 mL/kg twice daily (9:00 and 19:00) from 6 weeks of age.
# CCR2 = target: T1, CCR2 (Homo sapiens, UniProt P41597); assay: CCR2 receptor occupancy / MCP-1-induced CCR2 internalization in PBMCs, flow cytometry; assay type: cell-based
# T1 construct: endogenous in cells; host or cells: monocytes within PBMCs from HIV+ and HIV- subjects
# T1 sequence (P41597 1-360 isoform P41597-2): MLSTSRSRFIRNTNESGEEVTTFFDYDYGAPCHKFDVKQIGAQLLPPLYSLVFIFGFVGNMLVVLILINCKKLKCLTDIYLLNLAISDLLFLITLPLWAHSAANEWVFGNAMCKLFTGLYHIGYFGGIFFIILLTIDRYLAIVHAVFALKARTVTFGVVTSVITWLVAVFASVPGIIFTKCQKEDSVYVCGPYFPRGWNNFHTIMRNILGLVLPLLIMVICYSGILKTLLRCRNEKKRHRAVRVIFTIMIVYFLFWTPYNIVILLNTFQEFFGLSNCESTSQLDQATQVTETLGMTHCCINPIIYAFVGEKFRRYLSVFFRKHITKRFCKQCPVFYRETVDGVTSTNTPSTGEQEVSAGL
# Protocol: The capacity of each drug to inhibit CCR5 or CCR2 internalization was evaluated. Cell-surface expression of CCR5 and CCR2 was assessed by flow cytometry, and fluorescence values were converted into molecules of equivalent soluble fluorescence (MESF).
# [3] = Study 202 fasting metabolic laboratory parameters; assay type: in vivo, human; conditions: All CVC (N = 115); EFV (N = 28), through Week 48
# Text: All abnormalities in total cholesterol, LDL cholesterol, triglycerides, or glucose were Grade 1 or Grade 2.
# Mean baseline values and changes from baseline in HbA1c, HOMA-IR, fasting LDL, fasting HDL, fasting total cholesterol, fasting total cholesterol/HDL ratio, and fasting triglycerides are shown in Table 36.
# [4] = CVC-high 100 mg/kg/day, week 9, listed as Cenicriviroc
# [5] = CVC-low 20 mg/kg/day, week 9, listed as Cenicriviroc
# [6] = CVC-high 100 mg/kg/day, listed as Cenicriviroc
# [7] = CVC-low 20 mg/kg/day, listed as Cenicriviroc
smiles,measurement,setting,value
"CCCCOCCOc1ccc(-c2ccc3c(c2)/C=C(/C(=O)Nc2ccc([S@@+]([O-])Cc4cncn4CCC)cc2)CCCN3CC(C)C)cc1 [CVC, (S)-8-[4-(2-Butoxyethoxy)phenyl]-1-isobutyl-N-(4-{[(1-propyl-1H-imidazol-5-yl)methyl]sulfinyl}phenyl)-1,2,3,4-tetrahydro-1-benzazocine-5-carboxamide]",decrease of collagen type 1 mRNA in whole liver lysates,"NASH mice [1]; 20 and 100 mg/kg/day, week 9",27-37%
same,Body weight,"NASH mice [1]; CVC-high 100 mg/kg/day, week 9",18.7 ± 0.9 g
same,Modified Sirius red-positive area (perivascular space subtracted),"NASH mice [1]; CVC-high 100 mg/kg/day, week 9",0.20% and 0.20±0.06%
same,Plasma MCP-1,"NASH mice [1]; CVC-high 100 mg/kg/day, week 9",91 ± 14 pg/mL
same,Body weight,NASH mice [1]; [4],18.7 ± 0.9 g
same,Modified Sirius red-positive area (perivascular space subtracted),NASH mice [1]; [4],0.20 ± 0.06%
same,Plasma MCP-1,NASH mice [1]; [4],91 ± 14 pg/mL
same,"Hepatocyte ballooning score 0, number of mice","NASH mice [1]; CVC-high, week 9, n = 6",1
same,"Hepatocyte ballooning score 1, number of mice","NASH mice [1]; CVC-high, week 9, n = 6",2
same,"Hepatocyte ballooning score 2, number of mice","NASH mice [1]; CVC-high, week 9, n = 6",3
same,"Lobular inflammation score 1, number of mice","NASH mice [1]; CVC-high, week 9, n = 6",3
same,"Lobular inflammation score 2, number of mice","NASH mice [1]; CVC-high, week 9, n = 6",3
same,"Steatosis score 0, number of mice","NASH mice [1]; CVC-high, week 9, n = 6",1
same,"Steatosis score 1, number of mice","NASH mice [1]; CVC-high, week 9, n = 6",5
same,Body weight,"NASH mice [1]; CVC-low 20 mg/kg/day, week 9",19.5 ± 2.0 g
same,Liver hydroxyproline (μg/mg total protein),"NASH mice [1]; CVC-low 20 mg/kg/day, week 9",0.63±0.05 μg/mg total protein
same,Modified Sirius red-positive area (perivascular space subtracted),"NASH mice [1]; CVC-low 20 mg/kg/day, week 9",0.29% and 0.29±0.14%
same,Plasma ALT (U/L),"NASH mice [1]; CVC-low 20 mg/kg/day, week 9",58±12 U/L
same,Plasma MCP-1,"NASH mice [1]; CVC-low 20 mg/kg/day, week 9",68 ± 16 pg/mL
same,Plasma MIP-1β,"NASH mice [1]; CVC-low 20 mg/kg/day, week 9",18 ± 2 pg/mL
same,Body weight,NASH mice [1]; [5],19.5 ± 2.0 g
same,Liver hydroxyproline (μg/mg total protein),NASH mice [1]; [5],0.63 ± 0.05 μg/mg total protein
same,Modified Sirius red-positive area (perivascular space subtracted),NASH mice [1]; [5],0.29 ± 0.14%
same,Plasma ALT (U/L),NASH mice [1]; [5],58 ± 12 U/L
same,Plasma MCP-1,NASH mice [1]; [5],68 ± 16 pg/mL
same,Plasma MIP-1β,NASH mice [1]; [5],18 ± 2 pg/mL
same,"Hepatocyte ballooning score 1, number of mice","NASH mice [1]; CVC-low, week 9, n = 6",3
same,"Hepatocyte ballooning score 2, number of mice","NASH mice [1]; CVC-low, week 9, n = 6",3
same,"Lobular inflammation score 1, number of mice","NASH mice [1]; CVC-low, week 9, n = 6",3
same,"Lobular inflammation score 2, number of mice","NASH mice [1]; CVC-low, week 9, n = 6",3
same,"Steatosis score 1, number of mice","NASH mice [1]; CVC-low, week 9, n = 6",6
same,"Modified positive area (%), per mouse","NASH mice [1]; Cenicriviroc-high, individual mice 301-306",0.20%
same,"Modified positive area (%), per photo","NASH mice [1]; Cenicriviroc-high, individual mice 301-306, photos 1-5",0.41% and 0.09% (2×) and 0.23% (2×) and 0.17% (2×) and 0.28% (2×) and 0.22% (2×) and 0.08% (3×) and 0.05% and 0.32% and 0.07% (3×) and 0.16% and 0.20% (2×) and 0.68% and 0.27% and 0.12% and 0.11% and 0.67% and 0.26% and 0.06% and 0.10%
same,Liver hydroxyproline (μg/mg total protein),NASH mice [1]; week 9,0.62±0.09 μg/mg total protein
same,Plasma ALT (U/L),NASH mice [1]; week 9,51±13 U/L and 52±13 U/L
same,Plasma MIP-1β,NASH mice [1]; week 9,20 ± 4 pg/mL
same,Liver hydroxyproline (μg/mg total protein),"NASH mice [1]; week 9, listed as Cenicriviroc",0.62 ± 0.09 μg/mg total protein
same,Plasma ALT (U/L),"NASH mice [1]; week 9, listed as Cenicriviroc",52 ± 13 U/L
same,Plasma MIP-1β,"NASH mice [1]; week 9, listed as Cenicriviroc",20 ± 4 pg/mL
same,Body weight,NASH mice [2]; CVC-high 100 mg/kg/day,20.8 ± 2.7 g
same,Maximum diameter of visible tumor nodules (mm),NASH mice [2]; CVC-high 100 mg/kg/day,5.3±5.1 mm
same,Body weight,NASH mice [2]; [6],20.8 ± 2.7 g
same,Maximum diameter of visible tumor nodules (mm),NASH mice [2]; [6],5.3 ± 5.1 mm
same,mice that died (survival analysis),NASH mice [2]; CVC-high,Five out of twelve
same,mice with GS-positive nodules,NASH mice [2]; CVC-high,seven out of seven
same,mice with HCC lesions (HE staining),NASH mice [2]; CVC-high,six out of seven
same,Body weight,NASH mice [2]; CVC-low 20 mg/kg/day,22.9 ± 3.5 g
same,Maximum diameter of visible tumor nodules (mm),NASH mice [2]; CVC-low 20 mg/kg/day,4.8±5.4 mm
same,Body weight,NASH mice [2]; [7],22.9 ± 3.5 g
same,Maximum diameter of visible tumor nodules (mm),NASH mice [2]; [7],4.8 ± 5.4 mm
same,mice that died (survival analysis),NASH mice [2]; CVC-low,Six out of twelve
same,mice with GS-positive nodules,NASH mice [2]; CVC-low,five out of six
same,mice with HCC lesions (HE staining),NASH mice [2]; CVC-low,five out of six
same,concentration required to reach >80% receptor occupancy,"CCR2; CCR2, average",1.8 nM
same,prevention of MCP-1-induced CCR2 internalization,CCR2; PBMCs,at lower concentrations than BMS-22
same,CCR2 cell-surface expression,"CCR2; in the absence of MCP-1, monocytes",decreased cell-surface expression on monocytes
same,"Any fasting laboratory abnormality, worst Grade 1",[3],9 (8%) n (%)
same,"Any fasting laboratory abnormality, worst Grade 2",[3],7 (6%) n (%)
same,"Any fasting laboratory abnormality, worst Grade 3",[3],0 n (%)
same,"Any fasting laboratory abnormality, worst Grade 4",[3],0 n (%)
same,Any graded (Grade 1-4) fasting laboratory abnormality,[3],16 (14%) n (%)
same,"Fasting LDL cholesterol abnormality, Grade 1",[3],3 (3%) n (%)
same,"Fasting LDL cholesterol abnormality, Grade 2",[3],3 (3%) n (%)
same,"Fasting LDL cholesterol abnormality, Grade 3",[3],0 n (%)
same,"Fasting LDL cholesterol abnormality, Grade 4",[3],0 n (%)
same,"Fasting LDL cholesterol abnormality, any grade",[3],6 (5%) n (%)
same,"Fasting glucose (serum, high) abnormality, Grade 1",[3],3 (3%) n (%)
same,"Fasting glucose (serum, high) abnormality, Grade 2",[3],2 (2%) n (%)
same,"Fasting glucose (serum, high) abnormality, Grade 3",[3],0 n (%)
same,"Fasting glucose (serum, high) abnormality, Grade 4",[3],0 n (%)
same,"Fasting glucose (serum, high) abnormality, any grade",[3],5 (4%) n (%)
same,"Fasting total cholesterol abnormality, Grade 1",[3],5 (4%) n (%)
same,"Fasting total cholesterol abnormality, Grade 2",[3],3 (3%) n (%)
same,"Fasting total cholesterol abnormality, Grade 3",[3],0 n (%)
same,"Fasting total cholesterol abnormality, Grade 4",[3],0 n (%)
